The values below come from patent US11413321B2, “Pharmaceutical composition for use in increasing hair, modifying scalp or skin, healing a wound, promoting osteogenesis, or modifying hair” (priority 2017, dated 2022).

The structures appear in SMILES notation.

Common to all, as to format: in vivo, Wistar rat
Assay [1] concerns full-thickness skin defect. In words: Wound healing score, circular full-thickness skin defect on the dorsal part. Conditions: 20 μL administration liquid containing 1 mg of the fatty acid at each of four locations; FIG. 6C. The method, then: Formation of wounds: hair on the dorsal part of a 12-week-old Wistar rat was shaven with hair clippers, and a circular full-thickness skin defect with a diameter of 8 mm was produced on each of the left and right sides of the head and the left and right sides of the tail. The full-thickness skin defect was formed at four locations per body.
Administration of milk: 20 μL of milk was subcutaneously injected at each of four locations, namely upper, lower, left and right, in a place 4 mm away from the peripheral edge of the wound. As the milk, the commercially available bovine milk sterilized by heating (at 130 degrees for 2 seconds and 65 degrees for 30 minutes) as described in Example 1 was used.
Administration of fatty acid: As a fatty acid contained in the milk, sterile purified water (administration liquid) containing palmitic acid, stearic acid, myristic acid, linolenic acid, α-linoleic acid and oleic acid, respectively was administered. Here, the water was heated and administered for the saturated fatty acids, and the water was administered at room temperature for the unsaturated fatty acids. 20 μL of the administration liquid (containing 1 mg of the fatty acid) was subcutaneously administered at each of four locations, namely upper, lower, left and right, in a place 4 mm away from the peripheral edge of the wound.
Score 4: The reduction ratio of the area of the wound site is 70% or more.
Score 3: The reduction ratio of the area of the wound site is 50% or more and less than 70%.
Score 2: The reduction ratio of the area of the wound site is 20% or more and less than 50%.
Score 1: The reduction ratio of the area of the wound site is less than 20%.
The result was given as a ratio obtained by dividing the above score by the score for physiological saline.
Two tubes of 8 mL of commercially available milk sterilized at a low temperature (65 degrees for 30 minutes) were centrifuged by a centrifugal separator (2600 g×6 minutes), 2 mL of one fourth of the supernatant exclusive of a whip portion was collected from each tube, the two collected liquids were combined to obtain 4 mL of a liquid, and 4 mL of the resulting liquid was stirred, and used for experiments (hereinafter, the obtained sample is referred to as a “centrifuged sample”). The obtained centrifuged sample was administered to the wound site at a dosage of 20 μL per location in the same manner as described above. The results are shown in “Centrifuged Sample” in FIG. 6A.
Next, a wound healing-promoting effect of lactoferrin was examined. As lactoferrin, Nice rim essence 62971 (trade name) purchased from Lion Corporation was used and administered at one location in an amount of 20 μg or 60 μg in the same manner as described above. Specifically, the lactoferrin was ground, and then thoroughly dissolved in purified water. The lactoferrin concentration was adjusted so that an injection amount of 20 μL included the above administration amount. The result was given as a value obtained by dividing each of scores after seven days and after ten days by the score for the physiological saline administration group.

The next assay concerns Itga4. Description: Quantitative PCR of dorsal tissues after subcutaneous administration (Itga4). Conditions: 20 μL per location into rat dorsal part; vs control without administration; FIG. 15. The method, then: 4.) Integrin subunit alpha 4 (Itga4), Rattus norvegicus: mRNA 3,736 bp NM 001107737.1 GI: 157819948 Next, a change in gene expression in tissues was examined. Three regions were set between the head and the tail of the dorsal part of a 12-week-old Wistar rat (male), and each region was divided between the left and the right of the backbone into two regions to set a total of six regions on the dorsal part. Milk or palmitic acid was injected in an amount of 20 μL per location at two locations in the vicinity of the center of each region. The distance between the two locations was 1 cm. The collected tissue fragments were frozen with liquid nitrogen, and stored at −80° C. […] Analysis of gene expression by quantitative PCR was performed in the following manner: Integrated DNA technologies, Inc (Skokie, Ill., USA) was requested to design and synthesize gene-specific primers and probes, and using PrimeTime Gene Expression Master Mix Reagent (Integrated DNA Technologies, Inc, Skokie, Ill., USA) and Rotor-Gene Q PCR Apparatus (QIAGEN GmbH, Hilden, Germany), PCR analysis was performed twice per gene per specimen to analyze the expression level of a target gene. […]

Another assay deals with CD68-positive cells. In words: Immunohistological staining of rat dorsal skin after injection of fatty acids (CD68). As to conditions: 1 mg fatty acid in 20 μL per location. The method, then: Next, representative fatty acids contained in milk were administered to a 12-week-old Wistar rat at a plurality of locations on the dorsal skin as in Example 1(2) above, and a change in tissues by the administration was observed after the tissues were subjected to immunohistological staining. More specifically, physiological saline was administered in an amount of 20 μL per location, an administration liquid containing 1 mg of a fatty acid was administered in an amount of 20 μL per location, and a change in CD68-positive macrophage stained images and PPAR-γ-positive cell images by the administration was observed. Samples of the Wistar rat were obtained by sampling administration sites (four weeks after administration and eight weeks after administration). FIGS. 10A to 10G show the results. […] At saturated fatty acid injection sites, infiltration of a large number of CD68-positive cells was observed, and fibrillization of normal tissues was observed. Therefore, in FIGS. 10B to 10D, a change in fat tissues was examined at a location which was closest to the administration site and where normal tissues were maintained (non-fibrillization location).

With `CCCCCCCCCCCCCCCC(=O)O` [palmitic acid], the “wound healing-promoting effect (score divided by the score for physiological saline)” value in assay [1] is reported as “high promoting effect”. In addition, in the assay on Itga4, the “expression level of Itga4 in tissues” value was “greatly increased”. The “number of CD68-positive cells at the administration site” value is “maintained” in the assay on CD68-positive cells (eight weeks after administration) and “increased” with CD68-positive cells (four weeks after administration, vs physiological saline).
